These results are taken from US20020026053A1, “Novel 3-(substituted) -2- indolinones compounds and use thereof as inhibitors of protein kinase activity” (priority 1997, published 2002).

The experiment concerns the target T1, Met receptor (EGFR/Met chimeric cells, EMR) (Homo sapiens, UniProt P08581).
T1 construct: expressed in transfected cells; the other entry of the earlier key: EGFR (P00533, Epidermal growth factor receptor)
In words: Met Autophosphorylation Assay. It is filed as biochemical. Here is the method:
Met Autophosphorylation Assay
This assay determines Met tyrosine kinase activity by analyzing Met protein tyrosine kinase levels on the Met receptor.
a. HNTG (5× stock solution): Dissolve 23.83 g HEPES and 43.83 g NaCl in about 350 ml dH2O. Adjust pH to 7.2 with HCl or NaOH, add 500 ml glycerol and 10 ml Triton X-100, mix, add dH2O to 1 L total volume. To make 1 L of 1× working solution add 200 ml 5× stock solution to 800 ml dH2O, check and adjust pH as necessary, store at 4° C.
b. PBS (Dulbecco's Phosphate-Buffered Saline), Gibco Cat. # 450-1300EB (1× solution).
c. Blocking Buffer: in 500 ml dH2O place 100 g BSA, 12.1 g Tris-pH7.5, 58.44 g NaCl and 10 ml Tween-20, dilute to 1 L total volume.
d. Kinase Buffer: To 500 ml dH2O add 12.1 g TRIS (pH 7.2), 58.4 g NaCl, 40.7 g MgCl2 and 1.9 g EGTA; bring to 1 L total volume with dH2O.
e. PMSF (Phenylmethylsulfonyl fluoride), Sigma Cat. # P-7626, to 435.5 mg, add 100% ethanol to 25 ml total volume, vortex.
f. ATP (Bacterial Source), Sigma Cat. # A-7699, store powder at −20° C.; to make up solution for use, dissolve 3.31 mg in 1 ml dH2O.
g. RC-20H HRPO Conjugated Anti-Phosphotyrosine, Transduction Laboratories Cat. # E120H.
h. Pierce 1-Step Turbo™ B-ELISA (3,3′,5,5′-tetramethylbenzidine, Pierce Cat. # 34022.
i. H2SO4, add 1 ml conc.(18 N) to 35 ml dH2O.
j. TRIS HCL, Fischer Cat. # BP152-5; to 121.14 g of material, add 600 ml MilliQ H2O, adjust pH to 7.5 (or 7.2) with HCl, bring volume to 1 L with MilliQ H2O.
k. NaCl, Fischer Cat. # S271-10, make up 5M solution.
m. Na3VO4, Fischer Cat. # S454-50, to 1.8 g material add 80 ml MilliQ H2O, adjust pH to 10.0 with HCl or NaOH, boil in microwave, cool, check pH, repeat procedure until pH stable at 10.0, add MilliQ H2O to 100 ml total volume, make 1 ml aliquots and store at −80° C.
n. MgCl2, Fischer Cat. # M33-500, make up 1M solution.
o. HEPES, Fischer Cat. # BP310-500, to 200 ml MilliQ H2O, add 59.6 g material, adjust pH to 7.5, bring volume to 250 ml total, sterile filter.
p. Albumin, Bovine (BSA), Sigma Cat. # A-4503, to 30 grams material add sterile distilled water to make total volume of 300 ml, store at 4° C.
q. TBST Buffer: to approx. 900 ml dH2O in a 1 L graduated cylinder add 6.057 g TRIS and 8.766 g NaCl, when dissolved, adjust pH to 7.2 with HCl, add 1.0 ml Triton X-100 and bring to 1 L total volume with dH2O.
r. Goat Affinity purified antibody Rabbit IgG (whole molecule), Cappel Cat. # 55641.
s. Anti h-Met (C-28) rabbit polyclonal IgG antibody, Santa Cruz Chemical Cat. # SC-161.
t. Transiently Transfected EGFR/Met chimeric cells (EMR) (Komada, et al., Oncogene, 8:2381-2390 (1993).
u. Sodium Carbonate Buffer, ([…], Fischer Cat. # S495) to 10.6 g material add 800 ml MilliQ H2O, when dissolved adjust pH to 9.6 with NaOH, bring up to 1 L total volume with MilliQ H2O, filter, store at 4° C.
All of the following steps are conducted at room temperature unless it is specifically indicated otherwise. All ELISA plate washing is by rinsing 4× with TBST.
This procedure can be performed the night before or immediately prior to the start of receptor capture.
1. Quick thaw lysates in a 37° C. waterbath with a swirling motion until the last crystals disappear.
2. Lyse cell pellet with 1× HNTG containing 1 mM PMSF. Use 3 ml of HNTG per 15 cm dish of cells. Add ½ the calculated HNTG volume, vortex the tube for 1 min., add the remaining amount of HNTG, vortex for another min.
3. Balance tubes, centrifuge at 10,000× g for 10 min at 4° C.
4. Pool supernatants, remove an aliquot for protein determination.
5. Quick freeze pooled sample in dry ice/ethanol bath. This step is performed regardless of whether lysate will be stored overnight or used immediately following protein determination.
6. Perform protein determination using standard bicinchoninic acid (BCA) method (BCA Assay Reagent Kit from Pierce Chemical Cat. # 23225).
1. Coat Corning 96 well ELISA plates with 5 μg per well Goat anti-Rabbit antibody in Carbonate Buffer for a total well volume of 50 μl. Store overnight at 4° C. […]

T1 sequence (P08581 with tags, fused parts or gaps): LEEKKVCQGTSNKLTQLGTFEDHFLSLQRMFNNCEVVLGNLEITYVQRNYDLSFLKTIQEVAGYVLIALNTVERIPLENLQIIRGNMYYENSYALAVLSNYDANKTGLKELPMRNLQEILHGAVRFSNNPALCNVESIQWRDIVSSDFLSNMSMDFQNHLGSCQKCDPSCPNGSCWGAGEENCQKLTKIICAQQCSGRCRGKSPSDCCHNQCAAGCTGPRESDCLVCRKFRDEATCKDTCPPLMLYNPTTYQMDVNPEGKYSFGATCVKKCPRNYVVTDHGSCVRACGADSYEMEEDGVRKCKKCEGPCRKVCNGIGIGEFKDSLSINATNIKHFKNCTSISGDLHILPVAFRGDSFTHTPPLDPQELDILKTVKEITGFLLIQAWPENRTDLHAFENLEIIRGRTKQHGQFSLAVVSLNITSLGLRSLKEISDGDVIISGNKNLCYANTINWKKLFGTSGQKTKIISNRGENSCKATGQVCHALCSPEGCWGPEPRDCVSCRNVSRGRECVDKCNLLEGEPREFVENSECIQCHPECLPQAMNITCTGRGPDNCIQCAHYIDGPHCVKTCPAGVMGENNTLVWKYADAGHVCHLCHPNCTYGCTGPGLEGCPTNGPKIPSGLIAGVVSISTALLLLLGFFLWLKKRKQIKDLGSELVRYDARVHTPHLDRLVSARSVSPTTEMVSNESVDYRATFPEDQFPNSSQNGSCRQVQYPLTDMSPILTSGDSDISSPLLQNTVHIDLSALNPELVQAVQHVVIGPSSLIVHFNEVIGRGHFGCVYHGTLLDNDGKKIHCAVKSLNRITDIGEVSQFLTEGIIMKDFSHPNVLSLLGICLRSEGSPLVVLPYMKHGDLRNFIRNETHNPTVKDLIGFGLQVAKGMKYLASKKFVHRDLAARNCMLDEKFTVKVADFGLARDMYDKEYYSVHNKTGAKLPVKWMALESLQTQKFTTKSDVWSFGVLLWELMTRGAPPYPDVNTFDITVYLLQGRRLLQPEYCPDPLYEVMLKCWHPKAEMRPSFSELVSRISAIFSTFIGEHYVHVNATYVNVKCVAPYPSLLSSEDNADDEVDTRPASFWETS

In the case of `Cc1c(Br)cc(Br)c2c1C(=Cc1cc3ccccc3nc1Cl)C(=O)N2` [10730/H08], the “Met Kinase % Inhibition (P.130)” value was found to be 57.8%.
With `COC1CC(C=C2C(=O)Nc3c(Br)cc(Br)c(C)c32)C(OC)O1` (centres unmarked) [10730/H10], the “Met Kinase % Inhibition (P.130)” value worked out at 24.9%.
Regarding `Cc1cc(C=C2C(=O)Nc3c(Br)cc(Br)c(C)c32)oc1C` [10730/H11], the “Met Kinase % Inhibition (P.130)” value worked out at 32.6%.
In the case of `CCn1c2ccccc2c2cc(C=C3C(=O)Nc4c(Br)cc(Br)c(C)c43)ccc21` [10731/H02] it was 16.4%.
Consider `Cc1cc2occ(C=C3C(=O)Nc4c(Br)cc(Br)c(C)c43)c(=O)c2cc1C` [10731/H03], for which the “Met Kinase % Inhibition (P.130)” value is given as 23.3%.
Regarding `C=C(C)C1CC=C(C=C2C(=O)Nc3c(Br)cc(Br)c(C)c32)CC1` (centres unmarked) [10731/H04], the “Met Kinase % Inhibition (P.130)” value stood at 41.0%.
Consider `Cc1c(Br)cc(Br)c2c1C(=Cc1coc3ccc(C(C)C)cc3c1=O)C(=O)N2` [10731/H05], for which the “Met Kinase % Inhibition (P.130)” value is recorded as 32.2%.
As to `Cc1ccc2occ(C=C3C(=O)Nc4c(Br)cc(Br)c(C)c43)c(=O)c2c1` [10731/H06], the “Met Kinase % Inhibition (P.130)” value came out at 17.2%.
The same measure for `Cc1c(Br)cc(Br)c2c1C(=Cc1coc3ccc([N+](=O)[O-])cc3c1=O)C(=O)N2` [10731/H07]: 1.8%.
On to `Cc1c(Br)cc(Br)c2c1C(=Cc1c[nH]c(=O)[nH]c1=O)C(=O)N2` [10731/H08], for which the “Met Kinase % Inhibition (P.130)” value was found to be 10.9%.
Turning to `COc1ccc2[nH]cc(C=C3C(=O)Nc4c(Br)cc(Br)c(C)c43)c2c1` [10731/H09], the “Met Kinase % Inhibition (P.130)” value is 12.8%.
The same measure for `Cc1c(Br)cc(Br)c2c1C(=C1C(=O)N(C)c3ccccc31)C(=O)N2` [10731/H10]: 28.4%; for `Cc1c(Br)cc(Br)c2c1C(=CC(c1cccs1)C(F)(F)F)C(=O)N2` (centres unmarked) [10732/H02]: 56.8%.
In the case of `COc1c(C(C)C)cc(C=C2C(=O)Nc3c(Br)cc(Br)c(C)c32)cc1C(C)C` [10732/H03], the “Met Kinase % Inhibition (P.130)” value came out at 24.1%.
For `Cc1c(Br)cc(Br)c2c1C(=Cc1cc(C(C)C)c(Oc3ccccc3)c(C(C)C)c1)C(=O)N2` [10732/H04], the “Met Kinase % Inhibition (P.130)” value worked out at 57.6%.
Regarding `COc1ccc(C=C2C(=O)Nc3c(Br)cc(Br)c(C)c32)cc1C(C)(C)C` [10732/H05], the “Met Kinase % Inhibition (P.130)” value is reported as 13.3%.
As for `Cc1c(Br)cc(Br)c2c1C(=Cc1ccc(OCc3ccccc3)c(C(C)(C)C)c1)C(=O)N2` [10732/H06], the “Met Kinase % Inhibition (P.130)” value was 31.1%.
`COc1c(Br)cc(C=C2C(=O)Nc3c(Br)cc(Br)c(C)c32)cc1C(C)(C)C` [10732/H07]: the “Met Kinase % Inhibition (P.130)” value amounted to 26.7%.
With `Cc1c(Br)cc(Br)c2c1C(=Cc1cc(Br)c(OCc3ccccc3)c(C(C)(C)C)c1)C(=O)N2` [10732/H08], the “Met Kinase % Inhibition (P.130)” value was 38.7%.
For `COc1c(Cl)cc(C=C2C(=O)Nc3c(Br)cc(Br)c(C)c32)cc1C(C)(C)C` [10732/H09], the “Met Kinase % Inhibition (P.130)” value was 49.8%.
For the compound `Cc1c(Br)cc(Br)c2c1C(=Cc1cc(Cl)c(OCc3ccccc3)c(C(C)(C)C)c1)C(=O)N2` [10732/H10], the “Met Kinase % Inhibition (P.130)” value is 28.0%.
Consider `COc1c(I)cc(C=C2C(=O)Nc3c(Br)cc(Br)c(C)c32)cc1C(C)(C)C` [10732/H11], for which the “Met Kinase % Inhibition (P.130)” value amounted to 46.7%.
Turning to `Cc1c(Br)cc(Br)c2c1C(=Cc1cc(I)c(OCc3ccccc3)c(C(C)(C)C)c1)C(=O)N2` [10733/H02], the “Met Kinase % Inhibition (P.130)” value was determined as 38.9%.
For the compound `COc1c([N+](=O)[O-])cc(C=C2C(=O)Nc3c(Br)cc(Br)c(C)c32)cc1C(C)(C)C` [10733/H03], the “Met Kinase % Inhibition (P.130)” value was 0.6%.
Take `COc1c(C(C)(C)C)cc(C=C2C(=O)Nc3c(Br)cc(Br)c(C)c32)cc1C(C)(C)C` [10733/H04]: the “Met Kinase % Inhibition (P.130)” value is 11.9%.
`Cc1c(Br)cc(Br)c2c1C(=Cc1cc(C(C)(C)C)c(OCc3ccccc3)c(C(C)(C)C)c1)C(=O)N2` [10733/H05]: the “Met Kinase % Inhibition (P.130)” value was 5.6%.
With `COc1c(C)cc(C=C2C(=O)Nc3c(Br)cc(Br)c(C)c32)cc1C` [10733/H06], the “Met Kinase % Inhibition (P.130)” value was found to be 18.4%.
Turning to `Cc1cc(C=C2C(=O)Nc3c(Br)cc(Br)c(C)c32)cc(C)c1OCc1ccccc1` [10733/H07], the “Met Kinase % Inhibition (P.130)” value is on record as −1.3%.
The same measure for `COc1cc(Br)cc(C=C2C(=O)Nc3c(Br)cc(Br)c(C)c32)c1O` [10733/H08]: 41.6%.
As to `Cc1c(Br)cc(Br)c2c1C(=Cc1cc(Br)ccc1O)C(=O)N2` [10733/H09], the “Met Kinase % Inhibition (P.130)” value is on record as 51.9%.
`Cc1c(Br)cc(Br)c2c1C(=Cc1cc([N+](=O)[O-])ccc1O)C(=O)N2` [10733/H10]: the “Met Kinase % Inhibition (P.130)” value turned out to be 26.5%.
In the case of `COc1c(O)ccc(C=C2C(=O)Nc3c(Br)cc(Br)c(C)c32)c1[N+](=O)[O-]` [10733/H11], the “Met Kinase % Inhibition (P.130)” value is recorded as 76.7%.
